Biological target: T1, acid ceramidase (Homo sapiens, UniProt Q13510)
T1 construct: host or cells: unnamed cells; lysate 'enriched with acid ceramidase'
T1 sequence (Q13510 22-395): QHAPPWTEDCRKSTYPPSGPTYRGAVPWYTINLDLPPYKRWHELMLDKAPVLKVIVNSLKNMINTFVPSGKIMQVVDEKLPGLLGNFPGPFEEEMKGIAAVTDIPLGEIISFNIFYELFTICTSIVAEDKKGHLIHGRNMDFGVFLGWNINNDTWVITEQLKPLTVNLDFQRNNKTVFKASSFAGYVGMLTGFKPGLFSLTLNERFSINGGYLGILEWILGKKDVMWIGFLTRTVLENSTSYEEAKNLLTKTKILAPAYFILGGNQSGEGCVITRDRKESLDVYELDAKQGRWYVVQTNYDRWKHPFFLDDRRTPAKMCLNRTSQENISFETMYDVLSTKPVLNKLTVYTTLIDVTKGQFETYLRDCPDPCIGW
Assay: acid ceramidase fluorescent intensity assay with fluorogenic substrate Rbm 14-12
Format: biochemical
Conditions: cell lysates enriched with acid ceramidase, 1 hour pre-incubation, pH 4.5, substrate Rbm 14-12 at 6.3 μM, room temperature, 1 or two hours; read-out: average IC50 value for the 1 and 2 hour time points
Method: Inhibition of acid ceramidase activity by compound 25 of Table 1 was evaluated in a fluorescent intensity assay using a fluorogenic substrate Rbm 14-12 […]. Compound 25 was incubated with cell lysates enriched with acid ceramidase for 1 hour in an assay buffer containing 50 mM NaOAc and 100 mM NaCl at pH 4.5. The reaction was initiated by the addition of the substrate at a final concentration of 6.3 μM and the mixture was incubated at room temperature for 1 or two hours. At the appropriate time, the reaction was quenched by the addition of methanol and treated with NaIO4 (fresh 2.5 mg/ml solution was made in 100 mM glycine/NaOH buffer, pH 10.6), followed by incubation for 1 hour at room temperature. Fluorescent intensity was measured using a plate reader at ex 355 nm and em 460 nm.

- IC50: 0.25 to 0.5 µM
Compound: O=C(NCCCCc1ccccc1)n1c(=O)oc2cc(-c3ccc(F)cc3)ccc21 [compound 25, 6-(4-fluorophenyl)-2-oxo-N-(4-phenylbutyl)-1,3-benzoxazole-3-carboxamide]

Source: patent US20180369211A1, “METHODS AND COMPOSITIONS FOR TREATING NEURODEGENERATIVE DISORDERS” (Lysosomal Therapeutics Inc., priority 2016, published 2018)
